Reference: patent US20080032896A1, “Methods for identifying compounds that bind to a target” (priority 1995, published 2008)

Assays:
[1] = system: monoclonal antibody to bFGF; test: Competitive binding: blocking of phage binding to the anti-bFGF antibody; parameters: species or system mouse; conditions: phage containing the sequence P-R-G-H-W-K-Q (SEQ ID NO: 9); competitive binding experiments
Procedure: A monoclonal antibody raised against human basic FGF (bFGF) was used as a biopanning target using a 7-mer peptide library in a bacteriophage M13 vector. To prepare the biopanning plates, four wells of an Immulon4 microtiter plate (Dynatech) were coated with stepavidin (1 μg/well) in 100 mM NaHCO3, pH 9.5, for 2 hours at room temperature or overnight at 4° C. The strepavidin-coated wells were washed three times with phosphate-buffered saline (PBS). To each well containing strepavidin, biotinylated rat anti mouse antibody K light chain (PharMingen) was added, at 1 μg/well, in PBS for 30 minutes to 1 hour at room temperature. The wells were then washed again with PBS three times. Non-specific binding sites were blocked with 300 μl/well PBS, 1% dry milk for 1 hour at room temperature. The wells were then washed with PBS, 0.1% dry milk three times, loaded with 50 μl/well PBS, 0.1% dry milk and stored at 4° C. […]
After the 2 hour room temperature incubation of the phage with the antibody, the PBS, 0.1% milk buffer was removed from the wells of the strepavidin/biotinylated α-mouse complex plates and the corresponding 100 μl of each tube containing the antibody/phage mixture was added to each of the four wells. […] The phage eluant was titered and the fractional yield determined. […]

[2] = system: anti-FGF monoclonal antibody; test: FGF binding assay: inhibition of radiolabeled FGF binding to biotinylated anti-FGF antibody; parameters: species or system mouse
Procedure: FIG. 1 is a graph depicting the ability of compounds PPI-432, PPI-652 and PPI-654 to inhibit the binding of radiolabeled FGF to an anti-FGF antibody.
The activities of the libraries were tested using an FGF binding assay. […] Since Libraries I and II are highly diverse, the active non-peptide compounds should have a spectrum of potencies which cumulatively yield the average potency seen in the library.
The eluted non-peptide compounds were brought to dryness under vacuum. Recovered non-peptide compounds were dissolved in 50 μl water and tested for their ability to block the interaction of bFGF with the target protein. (Assuming 100% recovery of non-peptide compounds and 100% binding to bivalent antibody, the amount of recovered non-peptide compounds was calculated to be 200 ng).
Several of the non-peptide compounds selected from the combinatorial library were made synthetically and compared to the starting peptide (PPI-432) for their ability to bind to the target protein. The compounds were synthesized with an amino-terminal acetyl group and a carboxy-terminal amide. The potency of two non-peptide compounds (PPI-652 and PPI-654, shown in Table 2), containing modified amino acids at positions 5 and 7, were compared to the starting peptide PPI-432 in their ability to inhibit radiolabeled FGF binding to biotinylated anti-FGF antibody. […]

| blocking of phage binding to the antibody [1] | Substance | blocking of the binding of bFGF to the antibody [2] |
| --- | --- | --- |
| blocked | G-A-F-P-P-G-H-F-K-D-P-D-R-L (GAFPPGHFKDPDRL) [PPI-416] | blocked |
|  | P-P-G-H-F-K-D (PPGHFKD) [PPI-432] | blocked |
